The text below walks through data of patent US9925176B2, “Sodium channel blocker delivery system with scleral lens” (Boston Foundation for Sight, priority 2009, dated 2018).

One data set concerns cornea. The conditions noted are these: proparacaine 0.05%, after photorefractive keratectomy, Shahinian et al.; cited from earlier work.
Another data set deals with corneal sensitivity. The experiment in a line: Corneal sensitivity by Cochet-Bonnet aesthesiometry. The class given is in vivo, human. The source says:
The sub-hypoesthetic dose for a sodium channel blocker or a sodium channel modulator may vary between patients. […] The sub-hypoesthetic dose of a sodium channel blocker or a sodium channel modulator can be determined for an individual patient by selecting a higher starting concentration and gradually reducing the concentration via titration until reaching a sub-hypoesthetic dose as determined by a contact and non-contact esthesiometer. A non-limiting example of a method of determining corneal sensitivity is Cochet-Bonnet aesthesiometry.
As used herein, the phrases “sub-anesthetic dose” and “sub-anesthetic concentration” refer to a dose of a sodium channel blocker or a sodium channel modulator or a sodium channel modulator that is lower than the anesthetic dose. “Sub-anesthetic dose” and “sub-anesthetic concentration” may be used interchangeably. The sub-anesthetic dose of a sodium channel blocker or a sodium channel modulator may vary between patients. The sub-anesthetic dose of a sodium channel blocker or a sodium channel modulator can be determined for an individual patient by selecting a higher starting concentration and gradually reducing the concentration via titration until reaching a sub-anesthetic dose as determined by a contact and non-contact esthesiometer. A non-limiting example of a starting concentration of a sodium channel blocker or a sodium channel modulator is about 0.02%. In some embodiments, the concentration of the sodium channel blocker or a sodium channel modulator may be titrated down to a concentration that avoids any depression of corneal sensitivity. A non-limiting example of a method of determining corneal sensitivity is Cochet-Bonnet aesthesiometry.
A patient with well-established primary Sjögren's syndrome and severe dry eyes was treated for intense, constant corneal pain using the anesthetic delivery system disclosed herein. Specifically, the patient was treated with bupivacaine and BOS-P devices. The concentration of non-preserved bupivacaine was rapidly titrated using frequent (every 2-5 minutes) drops in the more symptomatic left eye (open label) measuring corneal sensitivity with a Cochet-Bonnet aesthesiometer (with adequate recovery times) until reaching the concentration that avoided any depression of corneal sensitivity. The sub-anesthetic concentration in this patient was determined to be 0.001%. […] The patient then left.

The next data set relates to corneas. The experiment in a line: Ocular safety examination (fluorescein staining, slit lamp, confocal microscopy). The class given is in vivo, human. As to the method:
(§1) They wore the BOS-P containing 0.001% bupivacaine in their left eye, and the BOS-P containing saline in their right eye unmasked to the patient and doctor, for about 8 hours. […] Corneal sensation in the treated eye was normal.
The patient returned the following day 2 hours after inserting the scleral lenses containing 0.015% ropivacaine.
A patient suffered from severe corneal neuropathic pain for many years, greatly limiting the patient's quality of life. This disease was refractory to previous treatments. Lacosamide was placed in the fluid reservoir of the device where it remained in contact with the cornea while it was worn (approximately 10 hours/day).

For data set [1], the system named is corneal neuropathic pain. The experiment in a line: Treatment of corneal pain with drug solution in the fluid reservoir of a scleral lens (BOS-P). The class given is in vivo, human. On the procedure:
A patient with well-established primary Sjögren's syndrome and severe dry eyes was treated for intense, constant corneal pain using the anesthetic delivery system disclosed herein. Specifically, the patient was treated with bupivacaine and BOS-P devices. The concentration of non-preserved bupivacaine was rapidly titrated using frequent (every 2-5 minutes) drops in the more symptomatic left eye (open label) measuring corneal sensitivity with a Cochet-Bonnet aesthesiometer (with adequate recovery times) until reaching the concentration that avoided any depression of corneal sensitivity. The sub-anesthetic concentration in this patient was determined to be 0.001%. Both BOS-P devices were filled with 0.001% bupivacaine and inserted into the patient's eyes. The patient then left.
The patient was given a vial of 0.01% bupivacaine to dilute 1:10 (e.g., add one drop of 0.01% bupivacaine to nine drops of saline) to fill the reservoir of the left lens prior to inserting it the next morning.
as §1
The fluid compartments of both BOS-P lenses were filled with non-preserved bupivacaine at a concentration of 0.002%, and the BOS-P lenses with bupivacaine were worn at least 12 hours/day. […] Eye symptoms were also resolved after the bupivacaine was diluted to 0.0014%.
A patient suffered from Stevens-Johnson syndrome for about 25 years, complicated by scarring of the lids and corneas of both eyes. The patient was fitted with scleral lens with marked mitigation of eye pain for 2 years following which the patient experienced increasingly disabling eye pain and photosensitivity that was refractory to all available treatments and required high daily doses of opioids to control. Three drops of ropivacaine 0.04% were mixed with 5 drops of saline in the reservoirs of both of the patient's scleral lenses, yielding a solution of 0.015% ropivacaine.
The patient returned the following day 2 hours after inserting the scleral lenses containing 0.015% ropivacaine. […]
A patient underwent a bone marrow stem cell transplant for leukemia and subsequently developed severe dry eyes secondary to chronic graft versus host disease. They were fitted with a scleral lens that eliminated the severe burning pain in their right eye but continued to experienced knife-like and severe aching pain in their left eye and disabling photosensitivity while wearing the scleral lens. This persisted for 15 months. All eye and co-morbid pain symptoms disappeared when the lens was worn with its fluid reservoir filled with sterile, non-preserved lacosamide 0.05%.

In data set [2] the test system is corneal neuropathic pain. The experiment in a line: Lacosamide eye drops without scleral lens for corneal neuropathic pain. The conditions noted are these: Example 5, eye drops with 0.5% lacosamide. The data set is classed as in vivo, human. As to the method:
Eye drops containing 0.5% lacosamide were administered to the eyes of two patients and to the an eye of the inventor. […] Therefore, it is believed that lacosamide may be used in eye drops at a concentration of up to 5% to treat corneal neuropathic pain without depressing corneal sensation.

Setting [3] is: Example 3, ropivacaine in scleral lenses, continued use.

On to `CCCOc1ccc(C(=O)OCCN(CC)CC)cc1N` [Proparacaine], for which, in the data set with cornea, the anesthetic effect result is reported as “non-anesthetic”; the toxicity and safety entry is “non-toxic, and safe for at least one week of use”.
On to `CCCCN1CCCCC1C(=O)Nc1c(C)cccc1C` (stereo not shown) [bupivacaine], for which the “corneal sensitivity during wear” value in the data set on corneal sensitivity (Example 1, 0.001% bupivacaine in left lens, verified periodically during the day) is on record as “absence of depressed corneal sensitivity”. Also, the “corneal sensation in the treated eye” value in the data set with corneal sensitivity (Example 1, after about 8 hours of BOS-P with 0.001% bupivacaine) was “normal”. For the same compound, the corneal sensation result with corneal sensitivity (Example 2, 0.002% bupivacaine in BOS-P, several weeks) was “remained intact”. Further, the fluorescein staining result in the data set with corneas (in vivo) was “no significant fluorescein staining”. Moreover, the “eye comfort reported by patient” value in the data set on corneal neuropathic pain [1] (Example 1, both BOS-P filled with 0.001% bupivacaine, next day) is recorded as “both eyes felt more comfortable than they had been in 3 months”. Moreover, in the data set on corneal neuropathic pain [1] (Example 1, second day, left lens reservoir filled with non-preserved bupivacaine), the “pain reported at day's end” value was “virtual absence of pain in either eye”. Moreover, the “pain after exposure to glass cleaner or white board marker” value in the data set on corneal neuropathic pain [1] (Example 1, second day, triggers that ordinarily cause severe pain) is on record as “little or no pain”. Also, the “pain reported after about 8 hours of wear” value in the data set with corneal neuropathic pain [1] (Example 1, third day, BOS-P with 0.001% bupivacaine in left eye, saline in right eye) is reported as “virtually no pain in either eye”. The “pain with the Visual Analog Scale” value in the data set on corneal neuropathic pain [1] (Example 1, third day, on arrival) is listed as “virtually no pain in either eye”. The eye symptoms entry in the data set with corneal neuropathic pain [1] (Example 2, bupivacaine diluted to 0.0014%) is “resolved”. The “eye symptoms (photosensitivity, burning pain, inability to read)” value with corneal neuropathic pain [1] (Example 2, post cosmetic lid surgery, 0.002% bupivacaine in both BOS-P, at least 12 hours/day, several weeks) is on record as “resolved”.
`COC[C@@H](NC(C)=O)C(=O)NCc1ccccc1` [lacosamide]: in the data set with corneal neuropathic pain [2], the “duration of effect, one patient” value is on record as “over four”; the “duration of effect, other patient” value is on record as “over two”; the “onset of pain resolution” value was “almost immediately after administration”. In addition, the corneal neuropathic pain result with corneal neuropathic pain [2] (both patients) was “complete resolution”. For the same compound, in the data set with corneal sensitivity (Example 5, eye drops with 0.5% lacosamide, two patients and the inventor), the corneal sensation result was “did not depress corneal sensation”. The “detrimental effects to the corneas” value with corneas (Example 4, 0.003% lacosamide in BOS-P, slit lamp examination and confocal microscopy) is listed as “without any detrimental effects”. In addition, in the data set on corneal neuropathic pain [1] (Example 6, chronic graft versus host disease dry eye, scleral lens reservoir filled with lacosamide 0.05%), the “eye and co-morbid pain symptoms” value is given as “disappeared”.
Consider `CCCN1CCCC[C@H]1C(=O)Nc1c(C)cccc1C` [ropivacaine], for which the corneal sensitivity result in the data set with corneal sensitivity (Example 3, 0.015% ropivacaine, following day) is listed as “normal”. The “corneal sensitivities at subsequent examinations” value with corneal sensitivity (setting [3]) was “normal”. Besides, in the data set on corneas (in vivo), the “adverse effects from the treatment” value was “no adverse effects” and the “treatment-related complications at subsequent examinations” value is given as “without adverse treatment-related complications”. Further, the “eye pain and photophobia, lenses worn until midnight” value in the data set with corneal neuropathic pain [1] (Example 3, 0.015% ropivacaine, first day) is listed as “total resolution”. Also, the “eye pain and photosensitivity following application” value in the data set on corneal neuropathic pain [1] (Example 3, Stevens-Johnson syndrome, 0.015% ropivacaine in both scleral lenses) is given as “rapid mitigation”. Further, the “symptoms at the time of examination” value in the data set with corneal neuropathic pain [1] (Example 3, following day, 2 hours after inserting lenses with 0.015% ropivacaine) is recorded as “free of symptoms”. Moreover, the “eye pain and photophobia at subsequent examinations” value in the data set on corneal neuropathic pain [1] (setting [3]) is listed as “significant mitigation”.
